The values below come from patent US11766447B2, “3′3′-cyclic dinucleotide analogue comprising a cyclopentanyl modified nucleotide as sting modulator” (INSTITUTE OF ORGANIC CHEMISTRY AND BIOCHEMISTRY ASCR, V.V.I., priority 2019, dated 2023).

Test [1] deals with peripheral blood mononuclear cells (PBMC). The experiment in a line: Peripheral blood mononuclear cell (PBMC) assay. It is filed as cell-based. To be noted: PBMC, 1 h with compounds, washed, 15 hour incubation, average of one to four donors. The gist of the method: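 PBMCs exposed to serially diluted compound for 1 h at 37° C, 5% CO2, then washed twice and cultured 15 h in compound-free medium. IFN-α, IFN-γ and TNF-α measured in collected medium by multiplex bead immunoassay. Values averaged over runs from one to four donors.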

Test [2] deals with T1, WT STING (Homo sapiens, UniProt Q86WV6, H232R). Kind of test: 293T WT STING standard reporter assay. In kind it is cell-based. Also on record: host or cells: 293T (ATCC CRL-3216), stably transfected, with 4xISRE firefly luciferase reporter. The following applies: 293T wtSTING-FL cells, ISRE firefly luciferase; no digitonin; 7 hours with compounds; 8-point curve. From the text: Two complementary oligonucleotides of the sequence […] […] […] […] […] The oligonucleotides were mixed in equal molar amounts, hybridized, and cleaved by restriction endonucleases HindIII (cat. #. R0104S, NEB, Ipswich, USA) and BglII (cat. #R0144S, NEB, Ipswich, USA). Ultimately, they were ligated into plasmid pGL4.27 (cat. #E6651, Promega, Madison, USA) linearized with the same enzymes. As result the sequence with four ISRE sites was placed upstream of the minimum promoter of firefly luciferase reporter gene.
After 5 minutes incubation at room temperature (RT), 250 μL of the mixture was added dropwise to the cells in one well. Cells were incubated 36 hours at 37° C. with 5% CO2, and then detached with 0.05% Trypsin and 0.22 g/L EDTA (both cat. #L0941, Biowest, Riverside, USA).
Transfected cells were seeded onto poly-D-lysine coated six well plates at density 50,000 cells per 1 cm^2 in DMEM medium with high glucose containing 10% heat inactivated FBS, 30 μg/mL blasticidin (cat. #ant-b1-05, InvivoGen, San Diego, USA), 0.06 mg/ml Penicillin G and 0.1 mg/ml Streptomycin Sulfate (both cat. #. L0018, Biowest, Riverside, USA). The medium was replenished every 3-4 days until visible colonies of cells resistant to blasticidin were formed.
Blasticidin resistant cells stably expressing WT STING were further transfected with […] plasmid following the same procedure as described above. […] Homogeneous culture of stably double transfected cells was prepared by limiting dilution of cells in 96 well plates and wells with cells were selected that originated from a single cell.
The medium was removed next day and three-fold serial dilutions of compounds in 100 μl medium were added to the cells. The plates with cells were incubated for 7 hours at 37° C. with 5% CO2. After 50 μl of the medium was removed, 30 μl of ONE-Glo™ Luciferase Assay System reagent (cat. #E6120, Promega, Madison, USA) was added to each well and luminescence was read on Synergy H1 (Biotek, Winooski, USA).
Target sequence in this assay (Q86WV6 whole entry H232R): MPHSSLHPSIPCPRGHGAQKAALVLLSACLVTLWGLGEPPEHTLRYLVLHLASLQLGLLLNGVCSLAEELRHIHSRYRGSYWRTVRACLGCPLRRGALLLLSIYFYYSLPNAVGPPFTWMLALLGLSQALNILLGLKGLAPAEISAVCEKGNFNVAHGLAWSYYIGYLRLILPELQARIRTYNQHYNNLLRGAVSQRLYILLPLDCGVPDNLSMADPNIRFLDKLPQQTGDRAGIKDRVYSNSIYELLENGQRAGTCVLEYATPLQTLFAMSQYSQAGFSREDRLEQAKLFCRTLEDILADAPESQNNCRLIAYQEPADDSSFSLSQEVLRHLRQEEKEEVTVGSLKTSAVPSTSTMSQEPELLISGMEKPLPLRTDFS
Background: A reporter such as luciferase makes a cellular process visible.

The next test concerns the target T2, AQ STING (G230A-R293Q) (Homo sapiens, UniProt Q86WV6, G230A/H232R/R293Q).
T2 construct: 8xHis (N, cleaved yes); SUMO (N, cleaved yes); made in house; host or cells: E. coli Rosetta-gami B (DE3)
Kind of test: Differential scanning fluorimetry (DSF) with AQ STING. To be noted: thermal shift vs apoprotein; 150 μM CDN; truncated human AQ STING 0.1 mg/ml. In kind it is binding. The gist of the method:
(§1)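 […] STING proteins, alone or with CDNs, in triplicate, thermally denatured on a real-time PCR cycler. Denaturing temperatures taken from first-derivative curves; shift = mean Tm of STING–CDN complex minus mean Tm of apoprotein.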
(DSF heats the sample and reads unfolding from a dye or from intrinsic fluorescence.)

The target in test [3] is T1, WT STING. The experiment in a line: Digitonin assay using 293T wtSTING-FL reporter cells. To be noted: 293T wtSTING-FL cells, ISRE firefly luciferase; compounds in Digitonin buffer 30 minutes, then 5 hours; 8-point curve. In kind it is cell-based. Also on record: host or cells: 293T (ATCC CRL-3216), stably transfected, with 4xISRE firefly luciferase reporter.
Target sequence in this assay (Q86WV6 whole entry H232R): as above
The target in test [4] is T1, WT STING. Kind of test: Differential scanning fluorimetry (DSF) with WT STING. It is filed as binding. The arrangement: 8xHis (N, cleaved yes); SUMO (N, cleaved yes); made in house; host or cells: E. coli Rosetta-gami B (DE3). The following applies: thermal shift vs apoprotein; 150 μM CDN; truncated human WT STING 0.1 mg/ml. The method in brief:
as §1
Target sequence in this assay (Q86WV6 140-343 H232R): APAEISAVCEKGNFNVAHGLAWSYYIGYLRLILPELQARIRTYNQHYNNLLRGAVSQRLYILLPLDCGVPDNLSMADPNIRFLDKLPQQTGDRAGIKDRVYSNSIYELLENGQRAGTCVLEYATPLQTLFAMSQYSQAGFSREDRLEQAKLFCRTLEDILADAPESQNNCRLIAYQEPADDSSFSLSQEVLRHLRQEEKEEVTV

Where [5] appears, read: interferon-alpha level, read-out: PBMC EC50 (μM) IFN-α.
[6] abbreviates: interferon-gamma level, read-out: PBMC EC50 (μM) IFN-γ.
[7] abbreviates: tumor necrosis factor-alpha level, read-out: PBMC EC50 (μM) TNF-α.

pEC50: −log10 of the molar value. Like-named read-outs stand apart in the source and are kept apart here.

T2 sequence (Q86WV6 140-343 G230A/H232R/R293Q): as the sequence (Q86WV6 140-343 H232R) above, with G91A, R154Q counted along it

For orientation: EC50 means the concentration that produces a half-maximal response. Usually pEC50 stands for the EC50 on a negative log10 scale, so that one unit is a factor of ten. For the molecule `Nc1ncnc2c1ncn2[C@@H]1C[C@@H]2COP(=O)(S)O[C@@H]3[C@@H](COP(=O)(S)O[C@H]2[C@H]1F)C[C@@H](n1cnc2c(N)ncnc21)[C@@H]3F` (single isomer, unassigned) [Compound 128b], the values for the EC50 in test [1] (setting [5]), in test [1] (setting [6]) and in test [1] (setting [7]) were 27 µM, 6.5 µM and 19 µM, respectively. The results for the pEC50 on WT STING [2] and at WT STING [3] were 6.40 and 8.00, respectively. For the same molecule, at AQ STING (G230A-R293Q), the “DSF ΔTm (° C.) AQ STING” value came to 17.5 °C. Further, on WT STING [4], the “DSF ΔTm (° C.) WT STING” value was 12.2 °C.
With `Nc1nc2c(ncn2[C@@H]2C[C@@H]3COP(=O)(S)O[C@H]4[C@@H](F)[C@H](n5cnc6c(N)ncnc65)O[C@@H]4COP(=O)(S)O[C@H]3C2)c(=O)[nH]1` (single isomer, unassigned) [Compound 129d], the half-maximal effective concentration (EC50) turned out to be 27 µM in test [1] (setting [5]), 23 µM in test [1] (setting [6]) and 25 µM in test [1] (setting [7]). In addition, the figures for the negative logarithm of the EC50 (pEC50) at WT STING [2] and at WT STING [3] were 6.52 and 8.15, respectively. At AQ STING (G230A-R293Q), the “DSF ΔTm (° C.) AQ STING” value came out at 20.8 °C. Moreover, the “DSF ΔTm (° C.) WT STING” value at WT STING [4] came to 13.7 °C.
Turning to `Nc1nc2c(ncn2[C@@H]2O[C@@H]3COP(=O)(O)O[C@@H]4[C@H](O)[C@@H](COP(=O)(O)O[C@@H]2[C@@H]3O)O[C@H]4n2cnc3c(N)ncnc32)c(=O)[nH]1` [2′2′-cGAMP, reference compound], the figures for the negative-log EC50 (pEC50) at WT STING [2] and at WT STING [3] were 4.99 and 7.52, respectively. On AQ STING (G230A-R293Q), the “DSF ΔTm (° C.) AQ STING” value was 19.4 °C. The “DSF ΔTm (° C.) WT STING” value at WT STING [4] was 11.5 °C.
As a reminder, the ΔTm is the change in melting temperature against a reference sample. In the case of `Nc1ncnc2c1ncn2[C@H]1CC2OP(=O)(O)OC[C@H]3O[C@@H](n4cnc5c(N)ncnc54)C(F)C3OP(=O)(O)OC[C@H]2C1` (stereo partly drawn) [Compound 119, (2R, 3R, 3aR, 7aR, 9R, 10aS, 14aR)-2,9-bis(6-amino-9H-purin-9-yl)-3-fluoro-5,12-dihydroxydecahydro-2H-cyclopeanta[d]furo[3,2-j][1,3,7,9]tetraoxa[2,8]diphosphacyclododecine 5,12-dioxide], the concentration for a half-maximal effect (EC50) was found to be 265 µM in test [1] (setting [5]), 169 µM in test [1] (setting [6]) and 146 µM in test [1] (setting [7]). Moreover, the pEC50 at WT STING [2] is 4.93; at WT STING [3], 7.30. Moreover, the ΔTm at 150 µM on AQ STING (G230A-R293Q) turned out to be 16.6 °C; on WT STING [4], 5.7 °C.
For the molecule `Nc1ncnc2c1ncn2[C@@H]1C[C@@H]2COP(=O)(O)OC3C(F)[C@H](n4cnc5c(N)ncnc54)O[C@@H]3COP(=O)(O)OC2C1F` (stereo partly drawn) [Compound 120, (2R,3R,3aR,7aR,9R,10S,10aR,14aR)-2,9-bis(6-amino-9H-purin-9-yl)-3,10-difluoro-5,12-dihydroxydecahydro-2H-cyclopenta[d]furo[3,2-j][1,3,7,9]tetraoxa[2,8]diphosphacyclododecine 5,12-dioxide], the EC50 came out at 64 µM in test [1] (setting [5]), 36.6 µM in test [1] (setting [6]) and 72.6 µM in test [1] (setting [7]). The pEC50 on WT STING [2] was 5.72; at WT STING [3], 8.00. Moreover, the ΔTm at 150 µM at AQ STING (G230A-R293Q) was determined as 17 °C; at WT STING [4] it was 10.3 °C.
Consider `Nc1ncnc2c1ncn2[C@@H]1C[C@@H]2COP(=O)(O)OC3C(F)[C@H](n4cnc5c(N)ncnc54)C[C@@H]3COP(=O)(O)OC2C1F` (stereo partly drawn) [Compound 121, (2R,3S,3aR,7aR,9R,10S,10aR,14aR)-2,9-bis(6-amino-9H-purin-9-yl)-3,10-difluoro-5,12-dihydroxydodecahydrodicyclopenta[d,j][1,3,7,9]tetraoxa[2,8]-diphosphacyclododecine 5,12-dioxide], for which the EC50 in test [1] (setting [5]) worked out at 254 µM; in test [1] (setting [6]) it was 200 µM; in test [1] (setting [7]) it was 254 µM. In addition, the negative-log EC50 (pEC50) is 5.59 on WT STING [2] and 7.30 at WT STING [3]. Moreover, the thermal shift (ΔTm) at 150 µM on AQ STING (G230A-R293Q) came out at 13.9 °C; on WT STING [4], 7.6 °C.
Regarding `Nc1ncnc2c1ncn2[C@@H]1C[C@@H]2COP(=O)(O)OC3C[C@H](n4cnc5c(N)ncnc54)O[C@@H]3COP(=O)(O)OC2C1F` (stereo partly drawn) [Compound 124, (2R,3aS,7aR,9R,10S,10aR,14aR)-2,9-bis(6-amino-9H-purin-9-yl)-10-fluoro-5,12-dihydroxydecahydro-2H-cyclopenta[d]furo[3,2-j][1,3,7,9]tetraoxa[2,8]diphosphacyclododecine 5,12-dioxide], the EC50 in test [1] (setting [5]) was found to be 290 µM; in test [1] (setting [6]), 43 µM; in test [1] (setting [7]), 223 µM. The figures for the pEC50 at WT STING [2] and on WT STING [3] were 5.31 and 7.30, respectively. Also, the ΔTm at 150 µM at AQ STING (G230A-R293Q) worked out at 12.8 °C; at WT STING [4], 6.2 °C.
In the case of `Nc1nc2c(ncn2[C@@H]2O[C@@H]3COP(=O)(S)OC4C(F)[C@H](n5cnc6c(N)ncnc65)C[C@@H]4COP(=O)(S)OC3C2F)c(=O)[nH]1` (stereo partly drawn) [Compound 132b, (1R,6R,8R,9R,10R,15R,17R,18S)-8-(2-amino-6-oxo-6,9-dihydro-1H-purin-9-yl)-17-(6-amino-9H-purin-9-yl)-9,18-difluoro-3,12-disulfanyl-2,4,7,11,13-pentaoxa-3λ^5,12λ^5-diphosphatricyclo[13.3.0.0^6,10]octadecane-3,12-dione], the pEC50 on WT STING [2] was 6.70; on WT STING [3], 8.00. The ΔTm at 150 µM at AQ STING (G230A-R293Q) is 26.1 °C; on WT STING [4] it was 18.6 °C.
